Among the data in ChEMBL document CHEMBL5291721, “A preclinical secondary pharmacology resource illuminates target-adverse drug reaction associations of marketed drugs” (Nat Commun, 2023) are AC50 values, retold here.

For assay [1], the target named is T1, Alpha-2B adrenergic receptor (Homo sapiens, UniProt P18089).
T1 sequence (P18089 whole entry): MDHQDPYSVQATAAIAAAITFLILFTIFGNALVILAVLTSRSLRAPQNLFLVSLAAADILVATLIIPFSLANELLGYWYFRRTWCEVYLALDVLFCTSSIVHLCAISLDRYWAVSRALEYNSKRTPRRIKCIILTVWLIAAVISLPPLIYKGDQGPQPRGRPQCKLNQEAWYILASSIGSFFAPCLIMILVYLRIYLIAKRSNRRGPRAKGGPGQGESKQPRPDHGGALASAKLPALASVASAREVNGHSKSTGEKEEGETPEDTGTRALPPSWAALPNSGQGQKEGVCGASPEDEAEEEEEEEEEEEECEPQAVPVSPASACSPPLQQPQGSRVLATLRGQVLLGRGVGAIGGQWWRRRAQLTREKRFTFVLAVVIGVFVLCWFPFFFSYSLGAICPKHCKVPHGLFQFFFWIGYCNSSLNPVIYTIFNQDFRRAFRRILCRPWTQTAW

Assay [2] deals with T2, Muscarinic acetylcholine receptor M2 (Homo sapiens, UniProt P08172).
T2 sequence (P08172 whole entry): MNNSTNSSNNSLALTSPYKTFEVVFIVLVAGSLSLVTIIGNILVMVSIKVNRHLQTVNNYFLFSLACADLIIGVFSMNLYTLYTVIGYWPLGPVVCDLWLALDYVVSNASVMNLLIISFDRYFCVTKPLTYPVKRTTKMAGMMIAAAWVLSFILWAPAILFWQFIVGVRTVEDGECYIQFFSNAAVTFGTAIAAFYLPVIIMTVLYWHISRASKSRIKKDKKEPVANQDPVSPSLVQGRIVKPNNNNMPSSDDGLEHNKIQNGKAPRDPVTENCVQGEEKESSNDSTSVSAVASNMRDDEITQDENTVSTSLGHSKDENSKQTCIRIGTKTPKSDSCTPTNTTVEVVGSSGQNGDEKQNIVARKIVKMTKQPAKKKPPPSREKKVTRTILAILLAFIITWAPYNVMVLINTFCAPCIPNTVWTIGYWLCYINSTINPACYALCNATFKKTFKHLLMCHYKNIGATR
In kind it is functional, cell-based.

Assay [3] deals with T3, Muscarinic acetylcholine receptor M1 (Homo sapiens, UniProt P11229).
T3 sequence (P11229 whole entry): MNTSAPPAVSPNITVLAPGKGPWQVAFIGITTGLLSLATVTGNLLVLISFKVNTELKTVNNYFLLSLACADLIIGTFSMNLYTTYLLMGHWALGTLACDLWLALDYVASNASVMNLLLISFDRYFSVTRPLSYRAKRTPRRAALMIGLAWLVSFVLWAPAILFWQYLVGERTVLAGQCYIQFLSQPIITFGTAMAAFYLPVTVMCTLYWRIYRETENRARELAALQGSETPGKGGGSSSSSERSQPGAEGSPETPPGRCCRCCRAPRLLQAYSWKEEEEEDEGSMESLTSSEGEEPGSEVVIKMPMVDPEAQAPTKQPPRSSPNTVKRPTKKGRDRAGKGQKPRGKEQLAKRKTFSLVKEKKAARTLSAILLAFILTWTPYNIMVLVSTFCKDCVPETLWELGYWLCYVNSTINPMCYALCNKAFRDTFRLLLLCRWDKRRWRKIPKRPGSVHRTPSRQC
In kind it is functional, cell-based.

The target in assay [4] is T3, Muscarinic acetylcholine receptor M1. The class given is functional, cell-based. This is another data set of the same source.
For the next assay, the target named is Histamine H1 receptor (Homo sapiens, UniProt P35367).
Sequence of Histamine H1 receptor (P35367 whole entry): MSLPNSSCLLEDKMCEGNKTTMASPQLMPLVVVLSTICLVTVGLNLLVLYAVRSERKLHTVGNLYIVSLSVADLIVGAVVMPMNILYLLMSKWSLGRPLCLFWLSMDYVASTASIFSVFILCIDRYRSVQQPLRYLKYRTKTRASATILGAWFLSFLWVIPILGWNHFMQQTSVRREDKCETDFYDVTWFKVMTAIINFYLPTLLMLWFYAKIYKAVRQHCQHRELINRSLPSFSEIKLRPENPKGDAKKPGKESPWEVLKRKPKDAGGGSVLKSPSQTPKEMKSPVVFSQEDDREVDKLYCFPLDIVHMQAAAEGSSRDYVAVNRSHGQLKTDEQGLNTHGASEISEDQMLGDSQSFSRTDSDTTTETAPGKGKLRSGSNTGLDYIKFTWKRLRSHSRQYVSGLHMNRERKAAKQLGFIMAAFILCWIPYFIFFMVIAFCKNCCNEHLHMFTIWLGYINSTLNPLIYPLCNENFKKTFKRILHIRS
The target of assay [5] is T4, Prostaglandin G/H synthase 1 (Rattus norvegicus, UniProt Q63921).
T4 sequence (Q63921 whole entry): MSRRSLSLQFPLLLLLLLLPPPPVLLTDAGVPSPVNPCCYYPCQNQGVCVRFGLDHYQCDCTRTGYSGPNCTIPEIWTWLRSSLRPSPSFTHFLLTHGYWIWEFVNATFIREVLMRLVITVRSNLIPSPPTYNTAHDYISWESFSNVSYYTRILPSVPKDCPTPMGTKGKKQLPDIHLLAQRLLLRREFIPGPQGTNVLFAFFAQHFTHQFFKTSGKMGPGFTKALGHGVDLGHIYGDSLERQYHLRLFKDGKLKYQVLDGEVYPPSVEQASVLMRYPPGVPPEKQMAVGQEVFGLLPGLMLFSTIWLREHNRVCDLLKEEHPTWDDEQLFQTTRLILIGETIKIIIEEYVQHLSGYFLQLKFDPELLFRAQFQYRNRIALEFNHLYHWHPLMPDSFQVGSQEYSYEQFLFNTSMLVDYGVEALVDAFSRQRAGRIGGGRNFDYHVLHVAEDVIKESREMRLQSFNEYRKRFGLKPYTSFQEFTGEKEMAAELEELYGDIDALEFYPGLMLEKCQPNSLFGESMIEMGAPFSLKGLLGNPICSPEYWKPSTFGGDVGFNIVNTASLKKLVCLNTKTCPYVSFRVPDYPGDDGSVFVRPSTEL
In kind it is functional.

The target in the next assay is T5, Adenosine receptor A3 (Homo sapiens, UniProt P0DMS8).
T5 sequence (P0DMS8 whole entry): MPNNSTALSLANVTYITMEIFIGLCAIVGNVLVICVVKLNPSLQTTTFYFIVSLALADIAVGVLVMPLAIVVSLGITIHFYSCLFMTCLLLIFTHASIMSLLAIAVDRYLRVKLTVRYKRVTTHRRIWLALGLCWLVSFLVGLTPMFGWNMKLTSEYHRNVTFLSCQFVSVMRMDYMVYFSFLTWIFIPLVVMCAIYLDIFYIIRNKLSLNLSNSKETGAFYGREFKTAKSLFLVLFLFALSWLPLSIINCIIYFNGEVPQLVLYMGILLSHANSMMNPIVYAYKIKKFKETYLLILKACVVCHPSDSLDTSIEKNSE

For assay [6], the target named is Gamma-aminobutyric acid receptor subunit alpha-1 (Rattus norvegicus, UniProt P62813).
Sequence of Gamma-aminobutyric acid receptor subunit alpha-1 (P62813 whole entry): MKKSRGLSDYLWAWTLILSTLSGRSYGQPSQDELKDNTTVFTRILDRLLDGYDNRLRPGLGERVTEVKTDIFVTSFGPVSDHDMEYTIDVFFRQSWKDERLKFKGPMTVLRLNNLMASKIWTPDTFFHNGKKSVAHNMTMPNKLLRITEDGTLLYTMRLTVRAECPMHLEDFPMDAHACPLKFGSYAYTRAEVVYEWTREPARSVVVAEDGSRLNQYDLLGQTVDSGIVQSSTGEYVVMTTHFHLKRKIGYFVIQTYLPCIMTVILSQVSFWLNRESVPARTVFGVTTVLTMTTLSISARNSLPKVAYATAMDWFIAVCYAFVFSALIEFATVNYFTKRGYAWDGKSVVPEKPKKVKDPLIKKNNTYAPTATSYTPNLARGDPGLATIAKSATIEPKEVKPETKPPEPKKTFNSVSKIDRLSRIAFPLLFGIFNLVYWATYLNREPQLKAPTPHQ
Assay [7] addresses Delta-type opioid receptor (Homo sapiens, UniProt P41143).
The target of assay [8] is T3, Muscarinic acetylcholine receptor M1. In kind it is functional.
Note: assay procedure not described here.

Sequence of Delta-type opioid receptor (P41143 whole entry): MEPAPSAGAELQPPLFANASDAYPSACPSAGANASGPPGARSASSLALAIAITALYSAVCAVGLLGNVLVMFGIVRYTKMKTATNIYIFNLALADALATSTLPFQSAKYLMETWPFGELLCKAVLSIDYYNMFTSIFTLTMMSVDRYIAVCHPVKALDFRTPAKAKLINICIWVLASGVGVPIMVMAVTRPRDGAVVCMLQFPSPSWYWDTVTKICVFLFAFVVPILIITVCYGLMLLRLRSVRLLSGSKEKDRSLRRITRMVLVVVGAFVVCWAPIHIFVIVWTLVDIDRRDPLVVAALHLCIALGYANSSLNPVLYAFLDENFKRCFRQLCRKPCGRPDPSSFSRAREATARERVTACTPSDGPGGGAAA

As for `O=C(Nc1ccccc1)OCC(CN1CCCCC1)OC(=O)Nc1ccccc1` (stereo not given) [DIPERODON], the AC50 (commonly the concentration at which the activity in the assay is half-maximal) in assay [1] is > 10 µM; in assay [2], > 30 µM; in assay [3], > 30 µM; in assay [4], > 30 µM; at Histamine H1 receptor, > 10 µM; in assay [5], > 30 µM. Besides, the AC50 at Adenosine receptor A3 is > 30 µM; in [6], > 10 µM; in [7], > 10 µM; in [8] it was > 10 µM.

`O=C(O)CCn1c2c(c3ccccc31)C[C@H](NS(=O)(=O)c1ccc(F)cc1)CC2` [RAMATROBAN]: the AC50 is > 10 µM in assay [1]; > 10 µM in [2]; > 30 µM in assay [3]; > 30 µM in assay [4]; > 10 µM on Histamine H1 receptor; > 30 µM in [5]. Besides, the AC50 at Adenosine receptor A3 is > 30 µM; in assay [6], > 10 µM; in [7] it was > 30 µM; in [8], > 10 µM.

For `CS(=O)(=O)Nc1cc2occ(NC=O)c(=O)c2cc1Oc1ccccc1` [IGURATIMOD], the AC50 (in [3]; in assay [4]; at Histamine H1 receptor; in [5]; at Adenosine receptor A3; in assay [7]) was > 30 µM each time. Also, in assay [8], the AC50 was > 30 µM.

Take `COc1ccc(CCC(C)NCC(O)c2ccc(O)c([S+](C)[O-])c2)cc1` (stereo not given) [SULFINALOL]: the AC50 in [3] and in [4] was > 30 µM throughout.

On to `CCCC1C(=O)N2C(N(C)C)=Nc3ccc(C)cc3N2C1=O` (stereo not given) [APAZONE], for which the AC50 in assay [3] and in assay [4] was > 30 µM throughout.

`NS(=O)(=O)c1cc2c(cc1Cl)NC(C1CC3C=CC1C3)NS2(=O)=O` (stereo not given) [CYCLOTHIAZIDE]: the AC50 is 17.6 µM in [3] and > 30 µM in [4].

`Cc1nc(-c2ccc(OCC(C)C)c(C#N)c2)sc1C(=O)O` [FEBUXOSTAT]: the AC50 in assay [3] is 16.1 µM; in assay [4], > 30 µM.

Consider `C1N2CN3CN1CN(C2)C3` [METHENAMINE], for which the AC50 in [3] and in [4] was > 30 µM in each case.

With `O=C(NC1CCN(CCCCC2(C(=O)NCC(F)(F)F)c3ccccc3-c3ccccc32)CC1)c1ccccc1-c1ccc(C(F)(F)F)cc1` [LOMITAPIDE], the AC50 was 3.86 µM in assay [3] and > 30 µM in [4].

In the case of `Nc1ccc(C(=O)O)cc1` [AMINOBENZOIC ACID], the AC50 in [3] and in assay [4] was > 30 µM each time.

On to `CCS(=O)(=O)N1CC(CC#N)(n2cc(-c3ncnc4[nH]ccc34)cn2)C1` [BARICITINIB], for which the half-maximal activity concentration (AC50) in [3] was > 10 µM; in [4], > 30 µM.

Regarding `O=C1CN=C(c2ccccc2)c2c(sc3c2CCCC3)N1` [BENTAZEPAM], the AC50 in assay [3] and in assay [4] was > 30 µM throughout.

Consider `CCOc1ccc(/C=C2\NCCc3cc(OCC)c(OCC)cc32)cc1OCC` [DROTAVERINE], for which the AC50 in [3] was 12.3 µM; in assay [4], > 30 µM.

As to `CCOC(=O)CC(SP(=S)(OC)OC)C(=O)OCC` (stereo not given) [MALATHION], the AC50 was 27.1 µM in assay [3] and > 30 µM in assay [4].

For the compound `CCOC(=O)C(c1c(O)c2ccccc2oc1=O)c1c(O)c2ccccc2oc1=O` [ETHYL BISCOUMACETATE], the half-maximal activity concentration (AC50) in assay [3] and in [4] was > 30 µM throughout.

As for `CC(C)Cc1ccc(C(C)C(=O)NO)cc1` (stereo not given) [IBUPROXAM], the AC50 in [3] was 20.1 µM; in [4], > 30 µM.

Consider `CC[C@@H]1/C=C(\C)C[C@H](C)C[C@H](OC)[C@H]2O[C@@](O)(C(=O)C(=O)N3CCCC[C@H]3C(=O)O[C@H](/C(C)=C/[C@@H]3CC[C@H](Cl)[C@H](OC)C3)[C@H](C)[C@@H](O)CC1=O)[C@H](C)C[C@@H]2OC` [PIMECROLIMUS], for which the half-maximal activity concentration (AC50) in assay [3] and in assay [4] was > 30 µM throughout.

Consider `COc1cc(NCc2ccc3nc(N)nc(N)c3c2C)cc(OC)c1OC` [TRIMETREXATE], for which the AC50 in [3] was 12.3 µM; in assay [4] it was > 30 µM.

Regarding `CCN(CC)CCNc1ccc(C)c2sc3ccccc3c(=O)c12` [LUCANTHONE], the AC50 was 4.21 µM in assay [3] and > 30 µM in assay [4].

Take `O=C(O)c1cccc(-c2noc(-c3ccccc3F)n2)c1`: the AC50 was > 10 µM in assay [2]; > 30 µM in assay [3]; > 30 µM in [4]; > 10 µM on Histamine H1 receptor; > 30 µM in [5]; > 30 µM on Adenosine receptor A3. In addition, the AC50 in assay [8] was > 10 µM.

Consider `COc1ccc(-c2cc(=O)c3c(O)cc(O[C@@H]4O[C@H](CO[C@@H]5O[C@@H](C)[C@H](O)[C@@H](O)[C@H]5O)[C@@H](O)[C@H](O)[C@H]4O)cc3o2)cc1O` [DIOSMIN], for which the AC50 in assay [3] and in assay [4] was > 30 µM in each case.

For the compound `CCC1(c2cccc(O)c2)CCCCN(C)C1` (stereo not given) [MEPTAZINOL], the AC50 in assay [3] and in assay [4] was > 30 µM throughout.
